Molecular target: T1, Human TRPV3 (Homo sapiens, UniProt Q8NET8)
T1 construct: expressed in transfected cells; host or cells: CHO cells (selected with G-418)
T1 sequence (Q8NET8 1-790): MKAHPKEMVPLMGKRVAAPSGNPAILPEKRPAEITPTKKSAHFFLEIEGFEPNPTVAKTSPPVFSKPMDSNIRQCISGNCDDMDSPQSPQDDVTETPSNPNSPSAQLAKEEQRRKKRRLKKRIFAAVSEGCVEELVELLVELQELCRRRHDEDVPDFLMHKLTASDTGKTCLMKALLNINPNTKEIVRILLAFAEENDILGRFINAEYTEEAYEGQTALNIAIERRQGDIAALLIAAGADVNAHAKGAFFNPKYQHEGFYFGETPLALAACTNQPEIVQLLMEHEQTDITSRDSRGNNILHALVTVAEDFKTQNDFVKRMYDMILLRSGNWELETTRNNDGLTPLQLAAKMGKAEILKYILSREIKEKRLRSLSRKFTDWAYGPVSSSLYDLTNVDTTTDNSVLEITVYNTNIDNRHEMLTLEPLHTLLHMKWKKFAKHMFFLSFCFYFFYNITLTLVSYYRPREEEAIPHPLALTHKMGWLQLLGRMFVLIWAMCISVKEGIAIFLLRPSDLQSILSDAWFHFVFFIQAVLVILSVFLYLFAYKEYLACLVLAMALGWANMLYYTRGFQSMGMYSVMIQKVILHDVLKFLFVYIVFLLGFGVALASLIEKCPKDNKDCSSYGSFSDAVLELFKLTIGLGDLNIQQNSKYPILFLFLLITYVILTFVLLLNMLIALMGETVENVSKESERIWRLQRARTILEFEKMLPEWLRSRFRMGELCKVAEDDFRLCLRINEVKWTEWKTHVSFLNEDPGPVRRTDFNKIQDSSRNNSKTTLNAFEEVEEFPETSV
Test: 45Calcium uptake assay: inhibition of 2-APB induced cellular uptake of radioactive calcium
Format: cell-based
Details: human TRPV3 expressing CHO cells, 2-APB 500 μM; for inhibition at 1 µM: 1 μM test compound, read-out: Percentage Inhibition (1 μM); for inhibition at 10 µM: 10 μM test compound, read-out: Percentage Inhibition (10 μM); for IC50: class symbol
Outline: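 CHO cells expressing human TRPV3 were preincubated with compound for 10 min (0.5% DMSO final), then given 500 μM 2-APB plus 5 μCi/ml 45Ca2+ for 4 min. Lysate radioactivity was counted by scintillation; responses as % of maximal without antagonist, with IC50 by nonlinear regression.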

Compound | inhibition at 1 µM [%] | inhibition at 10 µM [%] | IC50 [nM]
COc1cccc(/C=C/c2nc3cccnc3n2-c2ccc(C#N)cn2)c1OC1CCCC1 [Example 91, 6-{2-[(E)-2-(2-[Cyclopentyloxy]-3-methoxyphenyl)vinyl]-3H-imidazo[4,5-b]pyridin-3-yl}nicotinonitrile] | 95.3 | 99.7 | 100 to 500
COc1cccc(/C=C/c2nc3ccc[n+]([O-])c3n2-c2ccc(C#N)cn2)c1OC1CCCC1 [Example 92, 6 (2-{(E)-2-[2-(cyclopentyloxy)-3-methoxyphenyl]ethenyl}-4-oxido-3H-imidazo[4,5-b]pyridin-3-yl)pyridine-3-carbonitrile] | 3.02 | 24.5 | –
CCCCCOc1c(/C=C/c2nc3cc(Cl)cnc3n2-c2ccc(C#N)cn2)cccc1OC [Example 93, 6-{6-Chloro-2-[(E)-2-(2-pentyloxy-3-methoxyphenyl)vinyl]-3H-imidazo[4,5-b]pyridin-3-yl}nicotinonitrile] | 95.2 | 97.6 | 50 to 100
COc1cccc(/C=C/c2nc3cc(Cl)cnc3n2-c2ccc(C#N)cn2)c1OCC1CCC1 [Example 94, 6-(6-Chloro-2-{(E)-2-[2-(cyclobutylmethoxy)-3-methoxyphenyl]vinyl}-3H-imidazo[4,5-b]pyridin-3-yl)nicotinonitrile] | 94.5 | 98 | 50 to 100
COc1cccc(/C=C/c2nc3cc(Cl)cnc3n2-c2ccc(C#N)cn2)c1OC1CCCC1 [Example 95, 6-{6-Chloro-2-[(E)-2-(2-(cyclopentyloxy)-3-methoxyphenyl)vinyl]-3H-imidazo[4,5-b]pyridin-3-yl}nicotinonitrile] | 93.7 | 97.8 | 50 to 100
CCCCCOc1c(/C=C/c2nc3cccnc3n2-c2ccc(C#N)cn2)cccc1OC(F)F [Example 96, 6-(2-{(E)-2-[3-(Difluoromethoxy)-2-pentyloxyphenyl]vinyl}-3H-imidazo[4,5-b]pyridin-3-yl)nicotinonitrile] | 97.1 | 98.1 | 50 to 100
N#Cc1ccc(-n2c(/C=C/c3cccc(OC(F)F)c3OCC3CCC3)nc3cccnc32)nc1 [Example 97, 6-(2-{(E)-2-[2-(Cyclobutylmethoxy)-3-difluoromethoxyphenyl]vinyl}-3H-imidazo[4,5-b]pyridin-3-yl)nicotinonitrile] | 96 | 99.2 | 50 to 100
N#Cc1ccc(-n2c(/C=C/c3cccc(OC(F)F)c3OC3CCCC3)nc3cccnc32)nc1 [Example 98, 6-(2-{(E)-2-[2-(Cyclopentyloxy)-3-difluoromethoxyphenyl]vinyl}-3H-imidazo[4,5-b]pyridin-3-yl)nicotinonitrile] | 95.9 | 100 | 100 to 500
FC(F)Oc1cccc(/C=C/c2nc3cccnc3n2-c2ccc(C(F)(F)F)cc2)c1OCC1CCC1 [Example 99, 2-[(E)-2-(2-Cyclobutylmethoxy-3-difluoromethoxyphenyl)vinyl]-3-[4-(trifluoromethyl)phenyl]-3H-imidazo[4,5-b]pyridine] | 89.5 | 95.8 | > 500
FC(F)Oc1cccc(/C=C/c2nc3cccnc3n2-c2ccc(OC(F)(F)F)cc2)c1OCC1CCC1 [Example 100, 2-{(E)-2-[2-Cylobutylmethoxy-3-(difluoromethoxy)phenyl]vinyl}-3-[4-(trifluoromethoxy)phenyl]-3H-imidazo[4,5-b]pyridine] | 66.3 | 94.9 | –
CCCCCOc1c(/C=C/c2nc3cc(Cl)cnc3n2-c2ccc(C#N)cn2)cccc1OC(F)F [Example 101, 6-(6-Chloro-2-{(E)-2-[3-(difluoromethoxy)-2-pentyloxyphenyl]vinyl}-3H-imidazo[4,5-b]pyridin-3-yl)nicotinonitrile] | 30.3 | 85.2 | –
N#Cc1ccc(-n2c(/C=C/c3cccc(OC(F)F)c3OCC3CCC3)nc3cc(Cl)cnc32)nc1 [Example 102, 6-(6-Chloro-2-{(E)-2-[2-(cyclobutylmethoxy)-3-difluoromethoxyphenyl]vinyl}-3H-imidazo[4,5-b]pyridin-3-yl)nicotinonitrile] | 95.1 | 98.1 | 50 to 100
N#Cc1ccc(-n2c(/C=C/c3cccc(OC(F)F)c3OC3CCCC3)nc3cc(Cl)cnc32)nc1 [Example 103, 6-(6-Chloro-2-{(E)-2-[2-(cyclopentyloxy)-3-difluoromethoxyphenyl]vinyl}-3H-imidazo[4,5-b]pyridin-3-yl)nicotinonitrile] | 98.3 | 97.8 | 50 to 100
COc1cccc(/C=C/c2nc3cnccc3n2-c2ccc(C#N)cn2)c1OC1CCCC1 [Example 104, 6-{2-[(E)-2-(2-[Cyclopentyloxy]-3-methoxyphenyl)vinyl]-1H-imidazo[4,5-c]pyridin-1-yl}nicotinonitrile] | 48.7 | 98.3 | –
